Results on one compound are retold here after PMC3138742 (PLoS ONE, 2011).

The test system of one experiment is MDA-MB-468 cells. Briefly: Cell proliferation SRB assay. It counts as cell-based. Particulars: Homo sapiens, MDA-MB-468, 72 h, range given for four cell lines together, read-out: IC50 (antiproliferative). As for the experimental part:
(§1) Cell proliferation was evaluated using the SRB (Sulforhodamine B) assay as previously described. Briefly, cells were seeded into 96-well plates and grown for 24 h. […] The medium remained unchanged until the completion of the experiment. The cells were then fixed with 10% precooled trichloroacetic acid (TCA) for 1 h at 4°C and stained for 15 min at room temperature with 100 μL of 4 mg/mL SRB solution (Sigma) in 1% acetic acid. The SRB was then removed, and the cells were quickly rinsed five times with 1% acetic acid. After cells were air-dried, protein-bound dye was dissolved in 150 μL of 10 mmol/L Tris base for 5 min and measured at 515 nm using a multiwell spectrophotometer (VERSAmax, Molecular Devices). […] The IC50 value was obtained by the Logit method and was determined from the results of at least 3 independent tests.
For orientation: In SRB staining, fixed cells bind dye roughly in proportion to their protein.

The test system of another experiment is SK-OV-3 cells. As to the kind of experiment: Cell proliferation SRB assay. It counts as cell-based. Particulars: Homo sapiens, SK-OV-3, 72 h, range given for four cell lines together, read-out: IC50 (antiproliferative). As for the experimental part: as §1
The subject of a further experiment is NCI-H23 cells. Briefly: Cell proliferation SRB assay. Particulars: Homo sapiens, NCI-H23, 72 h, range given for four cell lines together, read-out: IC50 (antiproliferative). It counts as cell-based. As for the experimental part:
as §1

The next experiment addresses SYK (Homo sapiens, UniProt P43405). To be noted: cell-free. As for the experimental part: (§2) The tyrosine kinase activities were determined using enzyme-linked immunosorbant assay (ELISA). The serine/threonine kinase activities were detected by Caliper Mobility Shift Assay on EZ Reader (Caliper Life Sciences, MA) according to the instruction.
(§3) The kinase domain of EGFR, ErbB-2, IGF1R, VEGFR2, FGFR1, PDGFRα, c-Src, c-Met, RON, c-Kit, EphA2 and EphB2 were expressed using the Bac-to-Bac^TM baculovirus expression system (Invitrogen, Carlsbad, CA, USA) and purified on Ni-NTA columns (QIAGEN Inc., Valencia, CA, USA). VEGFR1, PDGFRβ and c-Abl were purchased from Upstate Biotechnology Inc. (Charlottesville, Virginia, USA). […] EGF was purchased from R&D, Minneapolis, […]. Poly(Glu-Tyr)(4:1), the substrate of tyrosine kinase, was from Sigma-Aldrich Corp. St. Louis, MO, USA.
(§4) The tyrosine kinase activities were determined in 96-well ELISA plates (Corning, NY, USA) precoated with 20 μg/mL Poly (Glu,Tyr)4:1. First, 80 μL of 5 μM ATP solution diluted in kinase reaction buffer (50 mM HEPES pH 7.4, 20 mM MgCl2, 0.1 mM MnCl2, 0.2 mM Na3VO4, 1 mM DTT) was added to each well. […] Subsequently, the kinase reaction was initiated by the addition of purified tyrosine kinase proteins diluted in 10 μL of kinase reaction buffer solution. Experiments at each concentration were performed in duplicate. After incubation for 60 min at 37 °C, the plate was washed three times with phosphate buffered saline (PBS) containing 0.1% Tween 20 (T-PBS). Next, 100 μL anti-phosphotyrosine antibody (PY99, 1:500 dilution) diluted in T-PBS containing 5 mg/mL BSA was added. After 30 min incubation at 37 °C, the plate was washed three times as before. Horseradish peroxidase-conjugated goat anti-mouse IgG (100 μL) diluted 1:2000 in T-PBS containing 5 mg/ml BSA was added. The plate was reincubated at 37 °C for 30 min, and then washed with PBS.

Another experiment deals with Abl (Homo sapiens, UniProt P00519). To be noted: cell-free. As for the experimental part:
as §2, §3, §4

The next experiment addresses IGF1R (Homo sapiens, UniProt P08069). To be noted: cell-free. As for the experimental part: as §2, §3, §4
The target in a further experiment is EGFR (Homo sapiens, UniProt P00533). Particulars: cell-free, means ± SD. As for the experimental part:
as §2, §3, §4

A further experiment concerns the target c-Met (Homo sapiens, UniProt P08581). To be noted: cell-free. As for the experimental part: as §2, §3, §4
The target of a further experiment is KDR (Homo sapiens, UniProt P35968). To be noted: cell-free. As for the experimental part: as §2, §3, §4
Chain of KDR (P35968 834-1162 limits assumed): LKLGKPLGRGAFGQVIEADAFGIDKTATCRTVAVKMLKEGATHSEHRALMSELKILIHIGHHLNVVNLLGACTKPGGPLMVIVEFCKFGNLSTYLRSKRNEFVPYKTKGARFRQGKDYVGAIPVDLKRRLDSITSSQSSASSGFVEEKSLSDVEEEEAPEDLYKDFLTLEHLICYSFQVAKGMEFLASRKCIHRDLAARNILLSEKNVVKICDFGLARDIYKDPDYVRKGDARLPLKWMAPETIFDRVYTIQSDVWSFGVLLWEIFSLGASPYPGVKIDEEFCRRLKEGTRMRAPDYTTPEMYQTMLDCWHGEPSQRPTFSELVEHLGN
Another experiment concerns the target Tie2 (Homo sapiens, UniProt Q02763). To be noted: Tie2, cell-free. As for the experimental part: as §2, §3, §4
For a further experiment, the target named is c-Src (Homo sapiens, UniProt P12931). To be noted: cell-free. As for the experimental part:
as §2, §3, §4

The next experiment deals with RON (Homo sapiens, UniProt Q04912). Particulars: cell-free. As for the experimental part: as §2, §3, §4
Chain of RON (Q04912 1082-1345 limits assumed): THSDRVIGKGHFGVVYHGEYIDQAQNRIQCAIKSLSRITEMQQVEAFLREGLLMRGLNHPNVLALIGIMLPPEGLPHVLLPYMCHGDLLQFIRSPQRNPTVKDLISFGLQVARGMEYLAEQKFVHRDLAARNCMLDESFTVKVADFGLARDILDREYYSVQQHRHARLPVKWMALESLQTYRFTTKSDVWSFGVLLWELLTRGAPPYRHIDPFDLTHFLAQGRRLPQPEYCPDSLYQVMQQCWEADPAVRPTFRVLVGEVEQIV
The target in another experiment is JAK2 (Homo sapiens, UniProt O60674). Particulars: JAK2, cell-free. As for the experimental part:
as §2, §3, §4

The target of the next experiment is Flt-1 (Homo sapiens, UniProt P17948). To be noted: Flt-1, cell-free. As for the experimental part: as §2, §3, §4
Chain of Flt-1 (P17948 27-1338): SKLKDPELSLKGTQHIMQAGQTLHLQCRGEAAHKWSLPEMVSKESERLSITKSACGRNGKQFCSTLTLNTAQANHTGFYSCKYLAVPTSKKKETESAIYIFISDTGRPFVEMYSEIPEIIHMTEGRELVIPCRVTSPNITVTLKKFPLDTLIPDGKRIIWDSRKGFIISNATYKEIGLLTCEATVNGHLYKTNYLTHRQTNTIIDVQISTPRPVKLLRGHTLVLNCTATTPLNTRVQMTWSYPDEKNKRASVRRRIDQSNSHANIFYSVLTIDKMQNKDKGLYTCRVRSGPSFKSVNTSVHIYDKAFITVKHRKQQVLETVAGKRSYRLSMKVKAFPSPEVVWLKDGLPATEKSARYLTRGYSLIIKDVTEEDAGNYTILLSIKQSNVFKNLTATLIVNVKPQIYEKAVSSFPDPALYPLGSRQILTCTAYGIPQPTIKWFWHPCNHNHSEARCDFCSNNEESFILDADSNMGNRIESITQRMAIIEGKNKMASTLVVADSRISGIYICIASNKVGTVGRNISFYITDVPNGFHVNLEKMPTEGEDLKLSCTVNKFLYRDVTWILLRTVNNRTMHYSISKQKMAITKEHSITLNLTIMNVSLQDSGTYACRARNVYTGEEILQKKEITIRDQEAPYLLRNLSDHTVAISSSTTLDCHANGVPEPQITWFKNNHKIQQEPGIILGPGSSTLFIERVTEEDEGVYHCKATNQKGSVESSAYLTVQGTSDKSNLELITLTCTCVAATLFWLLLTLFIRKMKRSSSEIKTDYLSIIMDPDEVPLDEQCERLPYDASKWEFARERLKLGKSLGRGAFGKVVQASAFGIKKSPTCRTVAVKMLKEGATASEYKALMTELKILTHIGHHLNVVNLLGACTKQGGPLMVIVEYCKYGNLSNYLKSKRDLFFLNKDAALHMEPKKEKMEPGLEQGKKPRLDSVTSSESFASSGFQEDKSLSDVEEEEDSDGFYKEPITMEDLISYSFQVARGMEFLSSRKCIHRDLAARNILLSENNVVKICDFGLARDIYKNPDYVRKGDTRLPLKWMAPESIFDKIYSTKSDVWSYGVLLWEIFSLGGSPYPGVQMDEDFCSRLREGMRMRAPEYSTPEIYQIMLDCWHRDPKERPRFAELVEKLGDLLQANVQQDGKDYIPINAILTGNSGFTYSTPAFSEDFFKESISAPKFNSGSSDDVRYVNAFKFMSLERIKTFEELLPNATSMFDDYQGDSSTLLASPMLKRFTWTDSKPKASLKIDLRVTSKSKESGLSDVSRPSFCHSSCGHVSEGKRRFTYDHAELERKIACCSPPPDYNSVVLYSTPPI
The next experiment concerns the target ErbB2 (Homo sapiens, UniProt P04626). Particulars: ErbB2, cell-free; means ± SD. As for the experimental part: as §2, §3, §4
For the next experiment, the target named is PDGFRα (Homo sapiens, UniProt P16234). Particulars: cell-free. As for the experimental part: as §2, §3, §4
The target of another experiment is PDGFRβ (Homo sapiens, UniProt P09619). Particulars: cell-free. As for the experimental part:
as §2, §3, §4

A further experiment has as its target FGFR1 (Homo sapiens, UniProt P11362). Particulars: FGFR1, cell-free. As for the experimental part: as §2, §3, §4
Another experiment concerns the target c-Kit (Homo sapiens, UniProt P10721). To be noted: cell-free. As for the experimental part: as §2, §3, §4
Another experiment deals with EphB2 (Homo sapiens, UniProt P29323). Particulars: EphB2, cell-free. As for the experimental part:
as §2, §3, §4

The target in another experiment is EphA2 (Homo sapiens, UniProt P29317). Particulars: EphA2, cell-free. As for the experimental part:
as §2, §3, §4

Experiment [1] concerns NIH3T3-EGFR T790M/L858R cells. Briefly: Cell proliferation SRB assay. It counts as cell-based. To be noted: 72 h. As for the experimental part:
as §2
Cell viability was determined using sulforhodamine B assay. IC50 values were determined based on the results of three independent experiments. […] Whole-cell lysates were assayed for total EGFR and phosphorylation of EGFR by immunoblotting. […] Cell viability was determined using sulforhodamine B assay.

Each structure is given as a SMILES string.

Chain of PDGFRβ (P09619 33-1106): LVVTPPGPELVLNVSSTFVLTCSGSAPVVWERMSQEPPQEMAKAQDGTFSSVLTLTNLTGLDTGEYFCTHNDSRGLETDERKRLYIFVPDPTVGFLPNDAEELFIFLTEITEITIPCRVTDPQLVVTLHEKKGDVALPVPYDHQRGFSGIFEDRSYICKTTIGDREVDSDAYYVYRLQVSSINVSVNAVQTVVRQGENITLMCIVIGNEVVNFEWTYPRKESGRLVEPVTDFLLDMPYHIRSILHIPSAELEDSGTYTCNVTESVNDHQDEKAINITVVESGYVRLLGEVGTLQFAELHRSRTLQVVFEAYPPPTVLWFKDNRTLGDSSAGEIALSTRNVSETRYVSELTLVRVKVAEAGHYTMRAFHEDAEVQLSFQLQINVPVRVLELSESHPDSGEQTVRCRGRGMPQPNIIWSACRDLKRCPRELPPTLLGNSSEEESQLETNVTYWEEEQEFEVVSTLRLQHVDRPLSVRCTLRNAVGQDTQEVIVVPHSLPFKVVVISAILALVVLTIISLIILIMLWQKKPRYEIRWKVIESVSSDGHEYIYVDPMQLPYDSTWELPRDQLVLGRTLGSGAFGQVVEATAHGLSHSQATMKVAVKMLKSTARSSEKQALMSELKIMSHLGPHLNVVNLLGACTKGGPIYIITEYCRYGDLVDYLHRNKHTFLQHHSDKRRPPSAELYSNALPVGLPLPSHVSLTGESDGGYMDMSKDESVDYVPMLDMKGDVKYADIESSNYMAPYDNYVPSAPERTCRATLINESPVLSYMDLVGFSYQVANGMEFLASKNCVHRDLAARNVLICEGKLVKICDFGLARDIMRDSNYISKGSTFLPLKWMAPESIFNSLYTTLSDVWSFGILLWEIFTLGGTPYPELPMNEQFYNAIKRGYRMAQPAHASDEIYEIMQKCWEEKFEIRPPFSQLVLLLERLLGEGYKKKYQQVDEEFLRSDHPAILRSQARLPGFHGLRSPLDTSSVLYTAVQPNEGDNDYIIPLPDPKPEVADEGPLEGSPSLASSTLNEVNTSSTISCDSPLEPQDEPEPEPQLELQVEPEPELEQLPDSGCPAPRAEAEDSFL
Chain of c-Met (P08581 1078-1345 limits assumed): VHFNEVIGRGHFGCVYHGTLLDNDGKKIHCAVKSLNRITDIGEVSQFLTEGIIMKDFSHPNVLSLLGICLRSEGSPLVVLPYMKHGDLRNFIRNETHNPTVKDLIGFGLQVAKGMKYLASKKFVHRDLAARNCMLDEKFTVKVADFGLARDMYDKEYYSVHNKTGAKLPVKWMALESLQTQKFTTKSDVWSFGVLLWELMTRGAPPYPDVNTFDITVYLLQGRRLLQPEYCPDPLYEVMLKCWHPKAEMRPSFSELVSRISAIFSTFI
Chain of ErbB2 (P04626 720-987 limits assumed): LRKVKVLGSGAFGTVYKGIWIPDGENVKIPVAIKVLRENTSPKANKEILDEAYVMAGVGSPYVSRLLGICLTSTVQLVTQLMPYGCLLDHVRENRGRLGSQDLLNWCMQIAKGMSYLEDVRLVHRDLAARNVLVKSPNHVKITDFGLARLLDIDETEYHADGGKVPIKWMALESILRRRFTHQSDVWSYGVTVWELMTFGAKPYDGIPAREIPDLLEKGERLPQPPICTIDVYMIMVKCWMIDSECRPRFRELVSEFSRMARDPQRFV
Chain of EGFR (P00533 712-979 limits assumed): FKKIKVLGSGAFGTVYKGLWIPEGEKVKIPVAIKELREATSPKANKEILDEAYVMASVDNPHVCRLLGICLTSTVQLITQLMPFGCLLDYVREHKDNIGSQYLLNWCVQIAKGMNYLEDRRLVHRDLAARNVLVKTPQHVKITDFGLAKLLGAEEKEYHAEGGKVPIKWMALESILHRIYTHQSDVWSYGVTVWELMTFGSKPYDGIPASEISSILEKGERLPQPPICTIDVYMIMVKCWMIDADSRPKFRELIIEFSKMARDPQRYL
Chain of IGF1R (P08069 999-1274 limits assumed): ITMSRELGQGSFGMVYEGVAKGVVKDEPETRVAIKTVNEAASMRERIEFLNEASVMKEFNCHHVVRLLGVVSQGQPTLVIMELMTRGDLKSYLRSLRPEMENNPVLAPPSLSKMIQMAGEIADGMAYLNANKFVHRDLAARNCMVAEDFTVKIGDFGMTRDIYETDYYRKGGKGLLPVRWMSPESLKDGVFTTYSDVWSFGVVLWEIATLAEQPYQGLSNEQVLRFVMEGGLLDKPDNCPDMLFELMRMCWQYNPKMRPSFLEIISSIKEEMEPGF
Chain of EphB2 (P29323 621-884 limits assumed): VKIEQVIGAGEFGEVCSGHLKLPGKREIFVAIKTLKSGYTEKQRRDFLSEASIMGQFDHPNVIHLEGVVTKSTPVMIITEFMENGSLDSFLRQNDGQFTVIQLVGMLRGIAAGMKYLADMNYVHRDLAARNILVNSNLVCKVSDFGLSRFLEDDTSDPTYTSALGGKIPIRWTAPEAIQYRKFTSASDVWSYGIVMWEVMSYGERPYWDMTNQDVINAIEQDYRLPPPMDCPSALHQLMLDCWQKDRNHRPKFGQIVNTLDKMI
Chain of FGFR1 (P11362 478-767 limits assumed): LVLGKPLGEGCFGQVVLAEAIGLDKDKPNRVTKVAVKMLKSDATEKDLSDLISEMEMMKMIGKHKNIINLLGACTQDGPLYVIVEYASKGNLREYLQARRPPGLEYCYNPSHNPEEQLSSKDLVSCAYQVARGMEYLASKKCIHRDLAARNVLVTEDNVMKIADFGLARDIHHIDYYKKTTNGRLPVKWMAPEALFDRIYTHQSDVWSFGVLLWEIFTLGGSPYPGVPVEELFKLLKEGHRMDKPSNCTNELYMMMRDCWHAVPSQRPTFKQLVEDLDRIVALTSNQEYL
Chain of c-Src (P12931 270-523 limits assumed): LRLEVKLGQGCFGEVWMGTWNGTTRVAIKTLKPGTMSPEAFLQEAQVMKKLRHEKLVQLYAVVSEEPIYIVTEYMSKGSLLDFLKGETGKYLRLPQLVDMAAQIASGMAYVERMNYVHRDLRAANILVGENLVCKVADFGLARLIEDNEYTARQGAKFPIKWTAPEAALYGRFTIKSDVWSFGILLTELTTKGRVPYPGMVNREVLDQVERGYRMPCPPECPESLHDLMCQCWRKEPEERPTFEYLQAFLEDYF

Take `C=CC(=O)Nc1ccc2ncnc(Nc3ccc(OCc4cccc(F)c4)c(Cl)c3)c2c1` [AST1306]: the IC50 with MDA-MB-468 cells was 6.2 to 7.5 µM; in the experiment on SK-OV-3 cells, 6.2 to 7.5 µM; in the experiment on NCI-H23 cells it was 6.2 to 7.5 µM; on SYK, above 10 µM; on Abl it was above 10 µM; at IGF1R it was above 10 µM. Also, the 50% inhibitory concentration (IC50) is 0.0005 ± 0.0002 µM against EGFR; above 10 µM against c-Met; above 10 µM on KDR; above 10 µM against Tie2; above 10 µM against c-Src; above 10 µM against RON. Besides, the half-maximal inhibitory concentration (IC50) at JAK2 is above 10 µM; on Flt-1, above 10 µM; on ErbB2, 0.003 ± 0.0015 µM; against PDGFRα, above 10 µM; on PDGFRβ it was above 10 µM; against FGFR1, above 10 µM. In addition, the IC50 on c-Kit, against EphB2 and on EphA2 was above 10 µM in each case. For the same compound, the “inhibition of cell growth” value in [1] was “significant, concentration-dependent inhibition”.

What is called IC50 is the concentration needed to halve the response being measured.
